From article PMC8224038, “Anti-Leukemic Properties of Aplysinopsin Derivative EE-84 Alone and Combined to BH3 Mimetic A-1210477” (Marine Drugs, 2021)
Like-named read-outs stand apart in the source and are kept apart here.

How the values were obtained:
K562 cells [1] = assay: Cell cycle analysis (PI, FACS); assay type: cell-based, human
Protocol: Cells were collected and fixed in 70% ethanol. DNA was stained with propidium iodide (PI) solution (1 μg/mL, Sigma-Aldrich, St. Louis, MO, USA) in 1XPBS (Biosesang, Seongnam, Korea) for 30 min at 37 °C, supplemented with RNase A (100 μg/mL, Roche, Basel, Switzerland). Samples were analyzed by flow cytometry using the FACSCalibur^TM system, Becton Dickinson (BD) Biosciences (San Jose, CA, USA). Data were recorded statistically (10,000 events/sample) using the Cell Quest software (BD Biosciences) and analyzed using Flow-Jo 8.8.5 software (Tree Star, Inc., Ashland, OR, USA).

K562IR cells = assay: Seahorse XFp Glycolysis Stress test (ECAR); assay type: cell-based, human; settings: EE-84 100 μM, 72 h
Protocol: (§1) The oxygen consumption rate (OCR) was measured using a Seahorse XFp Cell Mito Stress Assay (#103010-100, Agilent Technologies, Seoul, Korea) ran on a Seahorse XFp analyzer (Agilent Technologies, Seoul, Korea) according to the manufacturer’s instructions. […] Before measurements, plates were equilibrated in a CO2-free incubator at 37 °C for 1 h. The analysis was performed using 1.5 µM oligomycin, 0.5 µM carbonyl cyanide-4-(trifluoromethoxy)phenylhydrazone (FCCP), and 1 µM rotenone/antimycin A as indicated. Data were analyzed using the Seahorse XF Cell Mito Stress Test report generator software (Agilent). The extracellular acidification rate (ECAR) was measured in response to the sequential injection of 10 mM glucose, 2 µM oligomycin (H+-ATP-synthase inhibitor), and 50 mM 2-deoxy-d-glucose (2DG) (hexokinase inhibitor) to detect non-glycolytic acidification, glycolysis, maximal glycolytic capacity, and glycolytic reserve using a Seahorse XFp analyzer with a Glycolysis Stress Test kit (Agilent, Santa Clara, CA, USA).

K562 [2] = assay: Seahorse XFp Glycolysis Stress test (ECAR); assay type: cell-based, human; settings: K562, EE-84 50 μM, 72 h, vs control
Protocol: as §1

RPMI 1788 [3] = assay: Trypan blue exclusion test, viability (IC50) in noncancerous cells; assay type: cell-based, human; settings: for IC50: Homo sapiens, read-out: IC50 (50% cell death)
Protocol: (§2) Cell proliferation and viability were assessed by the trypan blue exclusion method (Lonza), and viable cells were counted using a hematocytometer (Marienfeld, Lauda-Königshofen, Germany). Differential toxicity was calculated by comparing the viability of RPMI 1788 cells to the viability of cancer cells (normal/cancer cells). The difference in viability was expressed in terms of fold change.

K562 cells [4] = assay: Trypan blue exclusion test, proliferation (GI50); assay type: cell-based, human; settings: Homo sapiens
Protocol: as §2

RPMI 1788 [5] = assay: Trypan blue exclusion test, proliferation (GI50) in noncancerous cells; assay type: cell-based, human; settings: Homo sapiens
Protocol: as §2

PBMCs = assay: Toxicity test in nonproliferating and proliferating PBMCs (trypan blue); assay type: cell-based, human; settings: 24, 48, 72 h
Protocol: Peripheral blood mononuclear cells (PBMCs) were isolated by density gradient centrifugation using Ficoll-Hypaque (GE Healthcare, Roosendaal, The Netherlands) from freshly collected buffy coats as previously described, obtained from healthy adult human volunteers (Red Cross, Luxembourg City, Luxembourg) after ethical approval as well as written informed consent from each volunteer. After isolation, cells were incubated overnight at 2 × 10^6 cells/mL in RPMI 1640 (supplemented with 1% antibiotic–antimycotic and 10% FCS (BioWhittaker, Verviers, Belgium) at 37 °C and 5% CO2 in a humidified atmosphere. The day after, cell concentration was adjusted at 1 × 10^6 cells/mL using the same fresh complete medium and then treated as indicated.
as §2

K562IR = assay: Trypan blue exclusion test, proliferation (GI50); assay type: cell-based; settings: Homo sapiens
Protocol: as §2

KBM5IR = assay: Trypan blue exclusion test, proliferation (GI50); assay type: cell-based
Protocol: as §2

KBM5 = assay: Trypan blue exclusion test, proliferation (GI50); assay type: cell-based; settings: Homo sapiens
Protocol: as §2

MEG01 = assay: Trypan blue exclusion test, proliferation (GI50); assay type: cell-based; settings: Homo sapiens, MEG-01
Protocol: as §2

K562 cells [6] = assay: Hoechst/PI staining by fluorescent microscopy; assay type: cell-based, human; settings: K562, 50 μM, 72 h
From the text: The percentage of apoptotic cells was quantified as the fraction of cells showing fragmented nuclei, as assessed by fluorescence microscopy (Nikon, Tokyo, Japan) after staining with Hoechst 33342 (Sigma-Aldrich) and propidium iodide (Sigma-Aldrich). In addition, apoptosis was confirmed by Annexin V APC (Biolegend, 640919)/propidium iodide (BD Biosciences, 556547) staining and fluorescence-activated cell sorter (FACS) analysis according to the manufacturer protocol (BD Biosciences, 556547).

K562 [7] = assay: Methocult colony formation assay; assay type: cell-based, human; settings: K562, 48-h pretreatment
Protocol: For 48 h pretreatment of EE-84 colony formation assays, approximately 3 × 10^5 cells were seeded in each well of a 24-well plate, treated with EE-84 at indicated concentrations, and incubated at 37 °C and 5% of CO2 in a humidified atmosphere for 48 h. After 48 h, 1000 cells were counted and grown in a semisolid methylcellulose medium (Methocult H4230, StemCell Technologies Inc., Vancouver, BC, Canada) supplemented with 10% FBS. Colonies were detected after 10 days of culture by adding 1 mg/mL of 3-(4,5-dimethylthiazol-2-yl)-2,5-diphenyltetrazolium bromide (MTT) reagent (Sigma-Aldrich) and were analyzed by Image J 1.8.0 software (U.S. National Institute of Health, Bethesda, MD, USA).

zebrafish embryos = assay: Zebrafish toxicity; settings: 24 h exposure
Protocol: For toxicity assays, embryos were treated with 0.003% phenylthiourea (PTU) 14 h before the assay to remove pigmentation. Then, 2 h before the assay, the embryo’s shell was eliminated and then treated for up to 24 h with aplysinopsin compounds at indicated concentrations in 24-well plates. Viability and abnormal development were assessed after 24 h of treatment under light microscopy (Carl Zeiss Stereomicroscope DV4, Seoul, Korea). Pictures were taken by fixing embryos onto a glass slide with 3% methylcellulose (Sigma-Aldrich).

## COc1ccc2c(c1)c(C(=O)C(=O)Nc1sc3c(c1C(C)=O)CC(C)CC3)cn2Cc1ccccc1 (stereo not shown) [EE-84, N-(3-Acetyl-4,5,6,7-Tetrahydro-5-Methylbenzo[b]Thiophen-2-yl)-2-(1-Benzyl-5-Methoxy-1H-Indol-3-yl)-2-Oxoacetamide]
K562 cells [1]; K562, 48 h, EE-84 10 μM
  G1 cell cycle phase: 59.59 ± 1.12%
  G2/M cell cycle phase: 18.64 ± 0.75%
  S cell cycle phase: 20.30 ± 1.68%
  Sub-G1 cell cycle phase: 1.48 ± 0.81%
K562 cells [1]; K562, 48 h, EE-84 30 μM
  G1 cell cycle phase: 61.11 ± 1.58%
  G2/M cell cycle phase: 13.25 ± 0.32%
  S cell cycle phase: 20.99 ± 0.83%
  Sub-G1 cell cycle phase: 4.65 ± 2.42%
K562 cells [1]; K562, 48 h, EE-84 50 μM
  G1 cell cycle phase: 58.40 ± 2.81%
  G2/M cell cycle phase: 12.86 ± 1.46%
  S cell cycle phase: 20.41 ± 1.84%
  Sub-G1 cell cycle phase: 8.34 ± 1.51%
K562 cells [1]; K562, 72 h, EE-84 10 μM
  G1 cell cycle phase: 60.83 ± 2.33%
  G2/M cell cycle phase: 17.57 ± 0.90%
  S cell cycle phase: 17.52 ± 4.24%
  Sub-G1 cell cycle phase: 4.08 ± 2.80%
K562 cells [1]; K562, 72 h, EE-84 30 μM
  G1 cell cycle phase: 55.09 ± 2.26%
  G2/M cell cycle phase: 17.03 ± 2.69%
  S cell cycle phase: 21.55 ± 1.64%
  Sub-G1 cell cycle phase: 6.33 ± 0.74%
K562 cells [1]; K562, 72 h, EE-84 50 μM
  G1 cell cycle phase: 52.03 ± 2.99%
  G2/M cell cycle phase: 15.08 ± 2.89%
  S cell cycle phase: 19.85 ± 1.33%
  Sub-G1 cell cycle phase: 13.03 ± 1.19%
K562IR cells
  glycolytic capacity of ECAR: significantly decreased
K562 [2]
  glycolysis and glycolytic capacity (ECAR): significantly decreased
RPMI 1788 [3]; RPMI 1788, 24 h
  IC50: > 50 µM
RPMI 1788 [3]; RPMI 1788, 48 h
  IC50: > 50 µM
RPMI 1788 [3]; RPMI 1788, 72 h
  IC50: > 50 µM
RPMI 1788 [3]; at 40 and 50 µM, viability normal/cancer cells
  differential toxicity RPMI-1788/K562 cells: significant differential toxicity
RPMI 1788 [3]; up to 50 µM, Figure S4B
  viability of RPMI 1788 cells: did not significantly affect
K562 cells [4]; K562, 48 h
  GI50: 32.2 ± 3.91 µM
K562 cells [4]; K562, 72 h
  GI50: 19.1 ± 0.8 µM
RPMI 1788 [5]; RPMI 1788, 24 h
  GI50: > 50 µM
RPMI 1788 [5]; RPMI 1788, 48 h
  GI50: > 50 µM
RPMI 1788 [5]; RPMI 1788, 72 h
  GI50: 40.1 ± 3.79 µM
PBMCs
  toxic effects in nonproliferating and proliferating PBMCs: did not induce toxic effects
K562IR; 24 h
  GI50: > 100 µM
K562IR; 48 h
  GI50: 95.6 ± 16.6 µM
K562IR; 72 h
  GI50: 55.1 ± 3.28 µM
KBM5IR; 24 h
  GI50: > 100 µM
KBM5IR; 48 h
  GI50: 32.8 ± 2.25 µM
KBM5IR; 72 h
  GI50: 29.2 ± 2.05 µM
KBM5; KBM5, 24 h
  GI50: > 50 µM
KBM5; KBM5, 48 h
  GI50: 34 ± 1.89 µM
KBM5; KBM5, 72 h
  GI50: 28.1 ± 1.68 µM
MEG01; MEG01, 24 h
  GI50: > 50 µM
MEG01; MEG01, 48 h
  GI50: 48.4 ± 5.02 µM
MEG01; MEG01, 72 h
  GI50: 28.9 ± 1.52 µM
K562 cells [6]
  propidium iodide (PI)-positive cells without nuclear fragmentation: 11.0 ± 4.23%
K562 [7]
  total surface area and average size of colonies: reduced
Zebrafish embryos
  heart rate of zebrafish: moderate decrease
Zebrafish embryos; concentrations up to 100 µM
  growth (relative body length) of zebrafish: did not affect
  survival rate of zebrafish: did not affect
Zebrafish embryos; embryos 24 hpf, different concentrations
  morphological changes of zebrafish: No significant morphological changes
